The results in this text go back to patent publication US20220009892A1, “SUBSTITUTED PYRIDINE CARBOXYLIC ACIDS, THEIR PREPARATION METHOD AND COMPOSITIONS THEREOF” (INCILIA THERAPEUTICS PRIVATE LIMITED, priority 2018, published 2022).

`COC(=O)c1cc(OC)c(OC(=O)c2cccnc2)c(OC)c1`: the melting point fell in the range of 173 to 175 °C.
